System: ΔG/SEAP/HCV E1E2
Assay: Effect of test substance on cell infection with HCV pseudotype virus (SEAP reporter assay in HepG2 cells)
Type: cell-based
Details: Hepatitis C virus

Structure (SMILES): COc1cc(OC)cc(-c2nn(-c3cc(NCCC4CC4)ccc3C(F)(F)F)c(=O)c3c2CCC3)c1 [Example 147, 2-[5-(2-cyclopropyl-ethylamino)-2-trifluoromethyl-phenyl]-4-(3,5-dimethoxy-phenyl)-2,5,6,7-tetrahydro-cyclopenta[d]pyridazin-1-one]
- IC50: < 100 nM

Structure (SMILES): COc1cc(OC)cc(-c2nn(-c3cc(NCCCNC(=O)OC(C)(C)C)ccc3C(F)(F)F)c(=O)c3c2CCC3)c1 [Example 129, (3-{3-[4-(3,5-dimethoxy-phenyl)-1-oxo-1,5,6,7-tetrahydro-cyclopenta[d]pyridazin-2-yl]-4-trifluoromethyl-phenylamino}-propyl)-carbamic acid tert-butyl ester]
- IC50: < 100 nM

Structure (SMILES): COc1cc(OC)cc(-c2nn(-c3c(Cl)cccc3Cl)c(=O)c3c2CCC3)c1 [Example 87, 2-(2,6-dichloro-phenyl)-4-(3,5-dimethoxy-phenyl)-2,5,6,7-tetrahydro-cyclopenta[d]pyridazin-1-one]
- IC50: < 100 nM

Structure (SMILES): COc1cc(C)cc(-c2nn(-c3cc(N4CC[C@H](O)C4)ccc3C(F)(F)F)c(=O)c3c2CC(C)N3)c1 (stereo partly drawn) [Example 16, 6-[5-((S)-3-hydroxy-pyrrolidin-1-yl)-2-trifluoromethyl-phenyl]-4-(3-methoxy-5-methyl-phenyl)-2-methyl-1,2,3,6-tetrahydro-pyrrolo[2,3-d]pyridazin-7-one]
- IC50: < 100 nM

Structure (SMILES): COc1cc(OC)cc(-c2nn(-c3cc(NCc4ccccc4)ccc3C(F)(F)F)c(=O)c3c2CCC3)c1 [Example 135, 2-(5-benzylamino-2-trifluoromethyl-phenyl)-4-(3,5-dimethoxy-phenyl)-2,5,6,7-tetrahydro-cyclopenta[d]pyridazin-1-one]
- IC50: 100 to 10000 nM

Structure (SMILES): COc1cc(OC)cc(-c2nn(-c3cc(N4CCC4)ccc3C(F)(F)F)c(=O)c3c2CCC3)c1 [Example 71, 2-(5-azetidin-1-yl-2-trifluoromethyl-phenyl)-4-(3,5-dimethoxy-phenyl)-2,5,6,7-tetrahydro-cyclopenta[d]pyridazin-1-one]
- IC50: < 100 nM

Structure (SMILES): O=c1c2c(c(-c3cccc(Br)c3)nn1-c1cc(N3CC[C@H](O)C3)ccc1C(F)(F)F)CCC2 [Example 73, 4-(3-bromo-phenyl)-2-[5-((S)-3-hydroxy-pyrrolidin-1-yl)-2-trifluoromethyl-phenyl]-2,5,6,7-tetrahydro-cyclopenta[d]pyridazin-1-one]
- IC50: < 100 nM

Structure (SMILES): COc1cc(OC)cc(-c2nn(-c3cc(NCCCO)ccc3C(F)(F)F)c(=O)c3c2CCC3)c1 [Example 130, 4-(3,5-dimethoxy-phenyl)-2-[5-(3-hydroxy-propylamino)-2-trifluoromethyl-phenyl]-2,5,6,7-tetrahydro-cyclopenta[d]pyridazin-1-one]
- IC50: < 100 nM

Structure (SMILES): COc1cc(OC)cc(-c2nn(-c3cc(-c4cccnn4)ccc3C(F)(F)F)c(=O)c3c2CC(C)N3)c1 (centres unmarked) [Example 19, 4-(3,5-dimethoxy-phenyl)-2-methyl-6-(5-pyridazin-3-yl-2-trifluoromethyl-phenyl)-1,2,3,6-tetrahydro-pyrrolo[2,3-d]pyridazin-7-one]
- IC50: < 100 nM

Structure (SMILES): COc1cc(OC)cc(-c2nn(-c3cc(NCCCC(=O)N(C)C)ccc3C(F)(F)F)c(=O)c3c2CCC3)c1 [Example 154, 4-{3-[4-(3,5-dimethoxy-phenyl)-1-oxo-1,5,6,7-tetrahydro-cyclopenta[d]pyridazin-2-yl]-4-trifluoromethyl-phenylamino}-N,N-dimethyl-butyramide]
- IC50: < 100 nM

Structure (SMILES): COc1cc(OC)cc(-c2nn(-c3cc(NCC(CO)CO)ccc3C(F)(F)F)c(=O)c3c2CCN3CCO)c1 [Example 1-43, 4-(3,5-dimethoxy-phenyl)-1-(2-hydroxy-ethyl)-6-[5-(3-hydroxy-2-hydroxymethyl-propylamino)-2-trifluoromethyl-phenyl]-1,2,3,6-tetrahydro-pyrrolo[2,3-d]pyridazin-7-one]
- IC50: < 100 nM

Structure (SMILES): CNC(=O)CCNc1ccc(C(F)(F)F)c(-n2nc(-c3cc(OC)cc(OC)c3)c3c(c2=O)CCC3)c1 [Example 138, 3-{3-[4-(3,5-dimethoxy-phenyl)-1-oxo-1,5,6,7-tetrahydro-cyclopenta[d]pyridazin-2-yl]-4-trifluoromethyl-phenylamino}-N-methyl-propionamide]
- IC50: < 100 nM

Structure (SMILES): COc1cc(OC)cc(-c2nn(-c3cc(N4CC[C@H](O)C4)ccc3C(F)(F)F)c(=O)c3c2CCN3CC(=O)N2CCN(C(C)=O)CC2)c1 [Example 41, 1-[2-(4-acetyl-piperazin-1-yl)-2-oxo-ethyl]-4-(3,5-dimethoxy-phenyl)-6-[5-((S)-3-hydroxy-pyrrolidin-1-yl)-2-trifluoromethyl-phenyl]-1,2,3,6-tetrahydro-pyrrolo[2,3-d]pyridazin-7-one]
- IC50: < 100 nM

Structure (SMILES): Cc1ccccc1-c1nn(-c2cc(N3CC[C@H](O)C3)ccc2C(F)(F)F)c(=O)c2c1CCC2 [Example 133, 2-[5-((S)-3-hydroxy-pyrrolidin-1-yl)-2-trifluoromethyl-phenyl]-4-o-tolyl-2,5,6,7-tetrahydro-cyclopenta[d]pyridazin-1-one]
- IC50: 100 to 10000 nM

Structure (SMILES): COc1cc(OC)cc(-c2nn(-c3cc(N4CC[C@H](O)C4)ccc3C(F)(F)F)c(=O)c3c2CCN3CC(=O)O)c1 [Example 27, {4-(3,5-dimethoxy-phenyl)-6-[5-((S)-3-hydroxy-pyrrolidin-1-yl)-2-trifluoromethyl-phenyl]-7-oxo-2,3,6,7-tetrahydro-pyrrolo[2,3-d]pyridazin-1-yl}-acetic acid]
- IC50: < 100 nM

Structure (SMILES): COc1cc(OC)cc(-c2nn(-c3cc(N(C)C)ccc3C(F)(F)F)c(=O)c3c2CCC3)c1 [Example 81, 4-(3,5-dimethoxy-phenyl)-2-(5-dimethylamino-2-trifluoromethyl-phenyl)-2,5,6,7-tetrahydro-cyclopenta[d]pyridazin-1-one]
- IC50: < 100 nM

Structure (SMILES): CCCOc1ccc(C(F)(F)F)c(-n2nc(-c3cc(OC)cc(OC)c3)c3c(c2=O)CCC3)c1 [Example 53, 4-(3,5-dimethoxy-phenyl)-2-(5-propoxy-2-trifluoromethyl-phenyl)-2,5,6,7-tetrahydro-cyclopenta[d]pyridazin-1-one]
- IC50: < 100 nM

Source: EP1953147A1, “HETEROCYCLIC COMPOUND AND MEDICINAL APPLICATION THEREOF” (priority 2005, dated 2007)
